Measurements reported in US5021549A, “Physiologically active substances, probestin and prostatin and production thereof” (priority 1987, dated 1991).
pIC50: −log10 of the molar value.

Assays:
aminopeptidase M = biological target: T1, aminopeptidase M (Sus scrofa, UniProt P15145); test: Inhibition of aminopeptidase M (L-leucine-β-naphthylamide substrate); assay type: biochemical; settings: read-out: Value of IC50 against Aminopeptidase M (converted)
T1 construct: purchased Boehringer Mannheim Company
T1 sequence (P15145 1-963): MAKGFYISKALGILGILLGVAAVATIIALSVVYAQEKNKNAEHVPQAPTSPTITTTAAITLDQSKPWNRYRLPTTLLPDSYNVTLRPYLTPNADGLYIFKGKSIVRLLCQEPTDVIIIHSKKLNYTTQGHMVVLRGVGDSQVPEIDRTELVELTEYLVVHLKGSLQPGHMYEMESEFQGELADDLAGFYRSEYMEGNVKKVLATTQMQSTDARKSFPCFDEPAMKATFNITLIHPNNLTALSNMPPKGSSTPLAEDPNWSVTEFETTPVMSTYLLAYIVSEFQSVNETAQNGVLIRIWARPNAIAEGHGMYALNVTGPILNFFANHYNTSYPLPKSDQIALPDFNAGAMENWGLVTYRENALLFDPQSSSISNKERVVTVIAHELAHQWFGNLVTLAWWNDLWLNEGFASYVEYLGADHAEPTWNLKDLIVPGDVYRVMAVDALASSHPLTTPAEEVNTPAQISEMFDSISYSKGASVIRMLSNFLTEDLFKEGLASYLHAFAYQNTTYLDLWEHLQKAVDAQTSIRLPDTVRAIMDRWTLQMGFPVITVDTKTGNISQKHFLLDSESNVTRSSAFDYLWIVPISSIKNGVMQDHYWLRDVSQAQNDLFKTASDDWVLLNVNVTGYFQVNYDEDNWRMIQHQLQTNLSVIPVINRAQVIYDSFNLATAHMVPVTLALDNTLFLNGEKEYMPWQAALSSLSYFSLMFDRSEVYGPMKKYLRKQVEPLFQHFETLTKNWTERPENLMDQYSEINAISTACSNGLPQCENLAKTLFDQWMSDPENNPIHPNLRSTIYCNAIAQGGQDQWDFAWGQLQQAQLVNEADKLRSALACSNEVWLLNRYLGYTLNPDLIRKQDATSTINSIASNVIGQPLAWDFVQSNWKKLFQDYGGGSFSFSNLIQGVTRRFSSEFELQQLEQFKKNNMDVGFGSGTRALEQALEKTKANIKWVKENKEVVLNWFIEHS
Experimental: The mixture solution obtained is heated at 37° C. for 3 minutes. To the heated solution is added 0.05 ml of an aqueous solution of aminopeptidase M (a product of Boehringer Mannheim Company; 4 units/mg). The resulting mixture is incubated for 30 minutes at 37° C. for the enzymatic reaction and the resultant reaction mixture is admixed with 1 ml of 1.0 M acetate buffered solution (pH 4.2) containing 10% of a surfectant "Tween" 20 and 0.1% of Fast Garnet GBC (0-aminoazotoluene, diazonium salt) to stop the enzymatic reaction. After allowing the resulting mixture to stand at ambient temperature for 15 minutes, the absorbance of light at 525 nm of the resultant reaction solution is measured, with designating the measured value as value (a). […] The rate (%) of inhibition to the aminopeptidase M is calculated from an equation [(b-a)/b]×100.

Aminopeptidase-A = Aminopeptidase-A (Homo sapiens, UniProt Q07075); test: Inhibition of aminopeptidase-A
Leucine-aminopeptidase = Leucine-aminopeptidase (Homo sapiens, UniProt P28838); test: Inhibition of leucine-aminopeptidase
[1] = tested on: antibody-forming cells in spleen; test: Humoral antibody formation: plaque-forming cells in spleen of SRBC-immunized mice (Jerne's hemolytic plaque technique); assay type: in vivo, CDF-mice; settings: for Number of PFC: counted 4 days after SRBC immunization; for T/C (%): PFC number versus control
Experimental: CDF-mice were immunized by intravenous injection of 10^8 sheep red blood cells (SRBC). 1000 μg/mouse, 250 μg/mouse or 62.5 μg/mouse of probestin was administered by intraperitoneal injection into the mice at the time of the immunization with SRBC (0 hour) and then totally three times, namely 24, 48 and 72 hours after the immunization. Four days after the immunization with SRBC, the number of the plaque-forming cell (PFC) (namely, the antibody-forming cells) in spleen was enumerated by the known Jerne's hemolytic plaque technique [Jerne, N.K; A. A. Nordin & C. Henry; "The agar plaque technique for recognizing antibody-producing cells in cell-bound antibodies" pp. 109-122 published by Wister Institute press, Philadelphia (1963)].

mice = test: Acute toxicity by intravenous injection in mice; assay type: in vivo
Solubility in solvents = assay type: physicochemical; settings: water and organic solvents
Aminopeptidase-B = Aminopeptidase-B (Homo sapiens, UniProt Q9H4A4); test: Inhibition of aminopeptidase-B
Sequence of Aminopeptidase-B (Q9H4A4 whole entry): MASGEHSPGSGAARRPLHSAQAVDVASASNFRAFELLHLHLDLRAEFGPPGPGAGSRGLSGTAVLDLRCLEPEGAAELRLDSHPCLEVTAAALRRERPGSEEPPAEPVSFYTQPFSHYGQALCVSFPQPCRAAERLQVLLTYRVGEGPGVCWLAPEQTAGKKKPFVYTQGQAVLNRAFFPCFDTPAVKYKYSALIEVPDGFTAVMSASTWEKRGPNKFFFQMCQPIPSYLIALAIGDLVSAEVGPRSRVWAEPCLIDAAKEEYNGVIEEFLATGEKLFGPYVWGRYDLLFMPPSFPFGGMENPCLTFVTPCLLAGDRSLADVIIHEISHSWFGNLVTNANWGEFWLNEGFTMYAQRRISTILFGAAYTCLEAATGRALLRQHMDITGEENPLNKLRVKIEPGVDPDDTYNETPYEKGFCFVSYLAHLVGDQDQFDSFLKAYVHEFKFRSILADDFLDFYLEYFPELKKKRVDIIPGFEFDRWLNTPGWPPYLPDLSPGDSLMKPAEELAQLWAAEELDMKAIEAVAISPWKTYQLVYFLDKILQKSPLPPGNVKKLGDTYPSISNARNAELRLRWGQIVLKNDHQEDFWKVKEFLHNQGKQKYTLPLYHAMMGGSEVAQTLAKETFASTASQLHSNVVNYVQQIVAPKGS

Sequence of Leucine-aminopeptidase (P28838 whole entry): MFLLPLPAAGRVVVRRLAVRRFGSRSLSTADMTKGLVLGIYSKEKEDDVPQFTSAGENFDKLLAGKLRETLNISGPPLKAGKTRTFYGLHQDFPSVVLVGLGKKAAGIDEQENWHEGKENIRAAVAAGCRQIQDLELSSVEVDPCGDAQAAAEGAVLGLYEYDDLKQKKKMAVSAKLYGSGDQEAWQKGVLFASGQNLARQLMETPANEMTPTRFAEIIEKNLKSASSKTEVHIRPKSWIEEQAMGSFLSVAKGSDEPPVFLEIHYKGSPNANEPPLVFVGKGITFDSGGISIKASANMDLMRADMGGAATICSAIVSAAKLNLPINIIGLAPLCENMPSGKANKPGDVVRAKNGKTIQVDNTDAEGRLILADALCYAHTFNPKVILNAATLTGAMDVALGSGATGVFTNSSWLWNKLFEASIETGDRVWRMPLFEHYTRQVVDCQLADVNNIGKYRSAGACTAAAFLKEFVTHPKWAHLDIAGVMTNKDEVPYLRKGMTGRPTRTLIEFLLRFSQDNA
Sequence of Aminopeptidase-A (Q07075 whole entry): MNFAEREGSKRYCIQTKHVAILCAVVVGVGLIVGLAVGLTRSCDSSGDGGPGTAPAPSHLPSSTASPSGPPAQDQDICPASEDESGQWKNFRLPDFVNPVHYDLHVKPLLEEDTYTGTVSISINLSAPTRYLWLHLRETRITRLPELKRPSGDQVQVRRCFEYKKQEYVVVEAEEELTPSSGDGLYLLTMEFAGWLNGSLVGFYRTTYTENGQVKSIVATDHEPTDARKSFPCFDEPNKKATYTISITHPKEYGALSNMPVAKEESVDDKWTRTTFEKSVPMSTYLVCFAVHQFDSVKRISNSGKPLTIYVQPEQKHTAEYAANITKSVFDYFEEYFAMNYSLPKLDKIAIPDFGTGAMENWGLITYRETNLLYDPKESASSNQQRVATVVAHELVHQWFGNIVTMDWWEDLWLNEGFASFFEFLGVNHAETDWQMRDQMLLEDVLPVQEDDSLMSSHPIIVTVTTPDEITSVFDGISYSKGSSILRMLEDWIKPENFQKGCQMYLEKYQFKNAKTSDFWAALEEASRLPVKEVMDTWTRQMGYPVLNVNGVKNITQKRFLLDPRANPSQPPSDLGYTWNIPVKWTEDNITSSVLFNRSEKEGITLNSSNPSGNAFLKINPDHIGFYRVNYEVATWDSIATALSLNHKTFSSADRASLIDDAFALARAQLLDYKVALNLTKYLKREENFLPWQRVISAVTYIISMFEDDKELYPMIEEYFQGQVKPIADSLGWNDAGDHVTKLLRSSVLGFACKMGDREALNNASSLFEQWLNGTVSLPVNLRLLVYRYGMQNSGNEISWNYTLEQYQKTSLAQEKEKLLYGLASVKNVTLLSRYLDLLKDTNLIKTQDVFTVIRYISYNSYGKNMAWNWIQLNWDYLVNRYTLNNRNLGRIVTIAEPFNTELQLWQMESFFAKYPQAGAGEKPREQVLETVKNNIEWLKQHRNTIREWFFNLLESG

Structure (SMILES)	IC50 (aminopeptidase M) [nM]	pIC50 (Aminopeptidase-A)	pIC50 (Leucine-aminopeptidase)	Number of PFC ([1]; 62.5 μg/mouse ip. at 0, 24, 48, 72 h)	T/C (%) ([1]; 62.5 μg/mouse ip.)	Number of PFC ([1]; 250 μg/mouse ip. at 0, 24, 48, 72 h)	T/C (%) ([1]; 250 μg/mouse ip.)	Number of PFC ([1]; 1000 μg/mouse ip. at 0, 24, 48, 72 h)	T/C (%) ([1]; 1000 μg/mouse ip.)	Effect on number of antibody-forming cells in spleen (in words) ([1]; intraperitoneal injection, SRBC-immunized mice, probestin 1000 μg to 62.5 μg/mouse)	LD50 (mice)	Solubility (Solubility in solvents)	Value of IC50 against Aminopeptidase-A (Aminopeptidase-A) [µg/mL]	Value of IC50 against Aminopeptidase-B (Aminopeptidase-B) [µg/mL]	Value of IC50 against Leucine-aminopeptidase (Leucine-aminopeptidase) [µg/mL]
CCCCC[C@H](CC(=O)NO)C(=O)N[C@H](C(=O)N1CCC[C@H]1CO)C(C)C [Actinonin, actinonin, reference compound]	1040	< 3.59	5.59												
CC(C)C[C@H](NC(=O)[C@@H](O)[C@H](N)Cc1ccccc1)C(=O)N1CCC[C@H]1C(=O)N1CCC[C@H]1C(=O)O [Probestin]				492.540 ± 69.980 × 10^3 /spleen	212.1	631.680 ± 69.560 × 10^3 /spleen	271.8	891.900 ± 162.610 × 10^3 /spleen	384.1	increased number of the antibody-forming cells in the spleen	greater than 250 mg/kg	Readily soluble in water, methanol and dimethyl-sulfoxide, but insoluble in acetone, ethyl acetate, chloroform and hexane	> 100	36.7	0.091
